# Tested on: Haemonchus contortus
# Experiment: Test B: Haemonchus contortus burdens in orally infected mice after gavage of test compound
# Type: in vivo
# Conditions: mice infected orally with 600 L3 Haemonchus contortus larvae; gavage 10.0 mg/kg on day 0; burdens on day 5 relative to vehicle-dosed controls
# Experimental: For evaluating control of the barber pole worm (Haemonchus contortus), mice were each infected orally with 600 L3 Hlaemonchus contortus larvae on Day −3. On day 0, the infected mice were gavaged with a test compound (n=1) in a propylene glycol/glycerol formal solution at the rate of 10.0 mg/kg body weight. On day 5, the mice were euthanized and evaluated for Haemonchus contortus burdens relative to the vehicle-dosed controls. The range of means for the number of Haemonchus contortus in the various tests in which these compounds were studied was 55-184.
row,Compound,% Efficacy
1,4-(2-chloro-4-cyanophenoxy)-N-(quinolinylmethyl)benzenesulfonamide [Compound 15],79%
2,O=S(=O)(NCc1ccnc2ccccc12)c1ccc(C(F)c2ccccc2)cc1 (racemic) [Compound 76],87%
3,"N#Cc1c(Cl)cccc1Oc1ccc(S(=O)(=O)NCc2ccnc3ccccc23)cc1 [Compound 2, 4-(3-chloro-2-cyanophenoxy)-N-(4-quinolinylmethyl)benzenesulfonamide]",76%
4,"O=S(=O)(NCc1ccnc2ccccc12)c1ccc(Cc2ccccc2)cc1 [Compound 5, 4-(phenylmethyl)-N-(4-quinolinylmethyl)benzenesulfonamide]",69%
5,O=S(=O)(NCc1ccnc2ccccc12)c1ccc(OCc2ccc(Cl)cc2Cl)cc1 [Compound 7],61%
6,N#Cc1ccc(Oc2ccc(S(=O)(=O)NCc3ccnc4ccccc34)cc2)cc1 [Compound 9],72%
7,N#Cc1cccc(Oc2ccc(S(=O)(=O)NCc3ccnc4ccccc34)cc2)c1 [Compound 23],54%
8,COC(=O)c1ccc(Oc2ccc(S(=O)(=O)NCc3ccnc4ccccc34)cc2)c(Cl)c1 [Compound 27],78%
9,O=S(=O)(NCc1ccnc2ccccc12)c1ccc(C#Cc2ccccc2)cc1 [Compound 28],62%
10,N#Cc1cc(Br)ccc1Oc1ccc(S(=O)(=O)NCc2ccnc3ccccc23)cc1 [Compound 31],66%
11,O=S(=O)(NCc1ccnc2ccccc12)c1ccc(COc2ccc(Cl)cc2)cc1 [Compound 34],71%
12,O=S(=O)(NCc1ccnc2ccccc12)c1ccc(CCc2ccccc2)cc1 [Compound 38],75%
13,CNC(=O)c1ccc(Oc2ccc(S(=O)(=O)NCc3ccnc4ccccc34)cc2)cc1 [Compound 51],74%
14,O=C(Nc1ccc(S(=O)(=O)NCc2ccnc3ccccc23)cc1)c1ccccc1 [Compound 53],61%
15,O=C(Nc1ccc(S(=O)(=O)NCc2ccnc3ccccc23)cc1)c1ccccc1Cl [Compound 56],78%
16,O=S(=O)(NCc1ccnc2ccccc12)c1ccc(Cc2ccc(F)cc2)cc1 [Compound 59],86%
17,O=S(=O)(NCc1ccnc2ccccc12)c1ccc(Cc2ccc(F)cc2F)cc1 [Compound 60],76%
18,O=S(=O)(NCc1ccnc2ccccc12)c1cccc(Cc2ccccc2)c1 [Compound 64],70%
19,COc1ccccc1C(=O)Nc1ccc(S(=O)(=O)NCc2ccnc3ccccc23)cc1 [Compound 69],90%
20,O=S(=O)(NCc1ccnc2ccccc12)c1ccc(Nc2ccccc2)cc1 [Compound 70],89%
21,O=S(=O)(NCc1ccnc2ccccc12)c1ccc(C#Cc2ccccc2)s1 [Compound 74],60%
22,O=S(=O)(NCc1ccnc2ccccc12)c1ccc(Cc2ccccc2)s1 [Compound 80],80%
23,O=S(=O)(NCc1ccnc2ccccc12)c1ccc(Cc2ccccc2F)cc1 [Compound 91],93%
24,O=S(=O)(NCc1ccnc2ccccc12)c1cccc(Cc2ccc(F)cc2)c1 [Compound 92],73%

# Tested on: Haemonchus contortus
# Experiment: Test A: control of barber pole worm, eggs in culture media, mortality after 120 hours (L3 stage)
# Type: cell-based
# Conditions: not given
# Experimental: For evaluating control of the barber pole worm (Haemonchus contortus), a test compound was solubilized in culture media (Earle's Balanced Salt Solution) containing Haemonchus contortus eggs to obtain a final test compound concentration of 2.0 ppm. The test unit was evaluated for mortality 120 hours later after which the eggs had hatched and had advanced to the L3 stage.
row,Compound,mortality at 2 ppm
1,"N#Cc1c(Cl)cccc1Oc1ccc(S(=O)(=O)NCc2ccnc3ccccc23)cc1 [Compound 2, 4-(3-chloro-2-cyanophenoxy)-N-(4-quinolinylmethyl)benzenesulfonamide]",100%
2,"O=S(=O)(NCc1ccnc2ccccc12)c1ccc(Cc2ccccc2)cc1 [Compound 5, 4-(phenylmethyl)-N-(4-quinolinylmethyl)benzenesulfonamide]",100%
3,"COC(=O)c1ccccc1Oc1ccc(S(=O)(=O)NCc2ccnc3ccccc23)cc1 [Compound 16, methyl 2-[4-[[(4-quinolinylmethyl)amino]sulfonyl]phenoxy]benzoate]",100%
4,O=S(=O)(NCc1ccnc2ccccc12)c1ccc(S(=O)(=O)c2ccccc2)s1 [Compound 36],100%
5,O=S(=O)(NCc1ccnc2ccccc12)c1ccc(COc2ccccc2)cc1Cl [Compound 37],100%
6,O=S(=O)(NCc1ccnc2ccccc12)c1cccc(OCc2ccccc2)c1 [Compound 40],100%
7,N#Cc1ccccc1Oc1ccc(S(=O)(=O)NCc2ccnc3ccccc23)cn1 [Compound 41],100%
8,O=S(=O)(NCc1ccnc2ccccc12)c1cccc(COc2ccc(Cl)cc2Cl)c1 [Compound 44],100%
9,O=S(=O)(NCc1ccnc2ccccc12)c1cccc(COc2ccccc2)c1 [Compound 46],100%
10,O=S(=O)(NCc1ccnc2ccccc12)c1cccc(Cc2ccccc2)c1 [Compound 64],100%
11,O=S(=O)(NCc1ccnc2ccccc12)c1ccc(C#Cc2ccc(Cl)cc2Cl)s1 [Compound 73],100%
12,O=S(=O)(NCc1ccnc2ccccc12)c1ccc(C#Cc2ccccc2)s1 [Compound 74],100%
13,O=S(=O)(NCc1ccnc2ccccc12)c1ccc(C#Cc2ccccc2Cl)s1 [Compound 75],100%
14,O=S(=O)(NCc1ccnc2ccccc12)c1ccc(Cc2ccccc2)s1 [Compound 80],100%
15,O=S(=O)(NCc1ccnc2ccccc12)c1cccc(Cc2ccc(F)cc2)c1 [Compound 92],100%
16,O=S(=O)(NCc1ccnc2ccccc12)c1ccc(Cc2ccc(F)cc2F)s1 [Compound 99],100%
